These results are taken from patent US20040033958A1, “N-alkylglycine trimeres capable of blocking the response to chemical substances, heat stimuli or mediators of neuronal receptor inflammation and compositions containing said trimeres” (priority 2000, published 2004).

One experiment addresses VR1 nociceptor (Rattus norvegicus, UniProt O35433). Put plainly: Blocking of capsaicin-activated ionic current in X. laevis ovocites expressing the VR1 nociceptor (two-microelectrode voltage clamp). Conditions: activated by capsaicin 20 μM, -80 mV, read-out: concentration that inhibited half the VR1 nociceptor response (IC50). In kind it is cell-based.
The subject of experiment [1] is irritation produced by topical capsaicin in the eye. Put plainly: Ocular pain model: scratches after topical capsaicin in the eye of a mouse. Conditions: scratches during 1 minute, second capsaicin application with compound vs first without. In kind it is in vivo. The protocol:
An investigation was performed on the attenuation of the N-alkylglycine trimeres indicated in Table 1, on the irritation produced by the topical application of capsaicin in the eyes of animals, an ocular pain model (22). The experimental paradigm compares the number of scratches after the topical administration of capsaicin at 0,01% in the eye of a mouse, in the absence and presence of the N-alkylglycine trimeres. After the administration of capsaicin, the number of times the mouse scratches its treated eye during 1 minute is counted. Subsequently, the affected eye is extensively rinsed with saline solution and 15 minutes after application, the compound to be tested is administered. After 5 minutes incubation, a 0,1% capsaicin solution containing the compound to be tested is administered. The number of times the animal scratches its eye during 1 minute is immediately counted. The analgesic capacity is obtained by comparing the number of scratches in the first application of capsaicin (without the compound to be tested) and the second application of the irritant (in the presence of the compound to be tested). A decrease of scratches in the second application of capsaicin is indicative of an analgesic activity of the N-alkylglycine trimere tested.

For experiment [2], the target named is NMDA receptor (NR1 and NR2A subunities) (Homo sapiens, UniProt Q05586+Q12879). In words: Blocking of L-glutamate/glycine-activated ionic current in X. laevis ovocites expressing the NMDA receptor (two-microelectrode voltage clamp). In kind it is cell-based. Conditions: activated by L-glutamate/glycine 100 μM/20 μM, -80 mV, read-out: concentration that inhibited half the NMDA receptor response (IC50). The source says: In order to evaluate the biological activity of the N-alkylglycine trimeres obtained in Example 1.1 on type NMDA glutamatergic receptors, a test was developed that evaluated the efficiency and power of said compounds blocking the ionic current activated by X. laevis ovocite agonist that express the type NMDA receptor, the […].
The heterologeous expression of receptors in X. laevis ovocites may be carried out according to the procedure described by Ferrer-Montiel and Montal (19). Briefly, the X. laevis ovocites of adult frogs are gathered, manipulated and injected with cRNA that codes the NR1 and NR2A subunities of the NMDA receptor (5, 20). The ionic currents activated by L-glutamate agonist in the presence of the glycine coagonist are recorded with the constant voltage maintenance technique with two microelectrodes (two-microelectrode voltage clamp) (19, 20). The ovocites that express the receptor are transferred to the recording chamber and perfunded using an 8-output perfusion system. The agonist and the coagonist, both in the absence and in the presence of the N-alkylglcycine trimeres to be tested, are dissolved in a Ringer buffer (Hepes 10 mM pH 7,4 NaCl 100 mM, Ba Cl2, 2,0 mM, KCl 3,0 mM) supplemented with 100 μM fluphenamic acid (20). This buffered solution is used to minimize the contribution of the chloride endogenous ionic channel activated by calcium to the glutamatergic receptor ionic current (19, 20). The transmembrane voltage is kept constant at −80 mV and the ionic currents are activated by applying pulses of the L-glutamate/glycine solution (100 μM /20 μM) in the presence or absence of growing concentrations of the N-alkylglycine trimeres to be tested. The inhibiting activity is detected by measuring the ionic current activated by the agonist in the presence and absence of the N-alkylglycine trimeres.
The power and efficiency of the N-alkylglycine trimeres inhibiting activity is determined by obtaining the dose-response curves. […]

Chain of NMDA receptor (NR1 and NR2A subunities) (Q12879 23-1464, other chains not shown): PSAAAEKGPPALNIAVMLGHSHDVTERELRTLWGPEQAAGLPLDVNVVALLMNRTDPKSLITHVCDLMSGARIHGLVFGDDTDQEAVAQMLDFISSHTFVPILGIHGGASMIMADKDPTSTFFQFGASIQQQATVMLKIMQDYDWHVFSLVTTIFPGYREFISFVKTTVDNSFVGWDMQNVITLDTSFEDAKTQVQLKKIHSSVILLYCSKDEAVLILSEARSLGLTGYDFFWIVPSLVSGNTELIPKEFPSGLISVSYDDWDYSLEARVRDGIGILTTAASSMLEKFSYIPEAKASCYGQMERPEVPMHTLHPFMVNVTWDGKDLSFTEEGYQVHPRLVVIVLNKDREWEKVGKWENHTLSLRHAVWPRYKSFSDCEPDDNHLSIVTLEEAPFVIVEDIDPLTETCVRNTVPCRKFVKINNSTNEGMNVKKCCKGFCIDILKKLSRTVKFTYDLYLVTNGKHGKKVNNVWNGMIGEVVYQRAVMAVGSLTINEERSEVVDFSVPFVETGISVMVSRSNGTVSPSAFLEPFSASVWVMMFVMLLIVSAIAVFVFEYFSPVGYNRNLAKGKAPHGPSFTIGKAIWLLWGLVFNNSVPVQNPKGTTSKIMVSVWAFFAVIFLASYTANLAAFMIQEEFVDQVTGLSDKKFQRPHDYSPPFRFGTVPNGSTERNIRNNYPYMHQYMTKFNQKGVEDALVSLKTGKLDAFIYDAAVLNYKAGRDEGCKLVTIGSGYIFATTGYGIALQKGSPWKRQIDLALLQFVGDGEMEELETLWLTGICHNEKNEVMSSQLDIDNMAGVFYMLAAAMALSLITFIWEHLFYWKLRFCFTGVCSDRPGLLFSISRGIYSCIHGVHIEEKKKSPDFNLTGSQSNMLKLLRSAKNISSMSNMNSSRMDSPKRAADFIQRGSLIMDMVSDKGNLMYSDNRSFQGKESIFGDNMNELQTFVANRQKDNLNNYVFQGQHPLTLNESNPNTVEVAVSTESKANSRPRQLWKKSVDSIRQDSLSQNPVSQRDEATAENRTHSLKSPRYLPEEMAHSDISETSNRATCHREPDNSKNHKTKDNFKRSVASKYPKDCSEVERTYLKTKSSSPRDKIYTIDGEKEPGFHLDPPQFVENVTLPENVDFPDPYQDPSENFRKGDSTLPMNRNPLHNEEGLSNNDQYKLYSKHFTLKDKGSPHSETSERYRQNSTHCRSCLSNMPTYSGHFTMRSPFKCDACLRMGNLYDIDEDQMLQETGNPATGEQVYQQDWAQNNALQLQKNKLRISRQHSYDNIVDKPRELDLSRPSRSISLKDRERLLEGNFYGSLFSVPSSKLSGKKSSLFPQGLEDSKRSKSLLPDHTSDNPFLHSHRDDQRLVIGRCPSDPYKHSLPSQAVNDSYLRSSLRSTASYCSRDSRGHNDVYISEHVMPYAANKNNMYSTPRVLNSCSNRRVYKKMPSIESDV
Chain of VR1 nociceptor (O35433 whole entry): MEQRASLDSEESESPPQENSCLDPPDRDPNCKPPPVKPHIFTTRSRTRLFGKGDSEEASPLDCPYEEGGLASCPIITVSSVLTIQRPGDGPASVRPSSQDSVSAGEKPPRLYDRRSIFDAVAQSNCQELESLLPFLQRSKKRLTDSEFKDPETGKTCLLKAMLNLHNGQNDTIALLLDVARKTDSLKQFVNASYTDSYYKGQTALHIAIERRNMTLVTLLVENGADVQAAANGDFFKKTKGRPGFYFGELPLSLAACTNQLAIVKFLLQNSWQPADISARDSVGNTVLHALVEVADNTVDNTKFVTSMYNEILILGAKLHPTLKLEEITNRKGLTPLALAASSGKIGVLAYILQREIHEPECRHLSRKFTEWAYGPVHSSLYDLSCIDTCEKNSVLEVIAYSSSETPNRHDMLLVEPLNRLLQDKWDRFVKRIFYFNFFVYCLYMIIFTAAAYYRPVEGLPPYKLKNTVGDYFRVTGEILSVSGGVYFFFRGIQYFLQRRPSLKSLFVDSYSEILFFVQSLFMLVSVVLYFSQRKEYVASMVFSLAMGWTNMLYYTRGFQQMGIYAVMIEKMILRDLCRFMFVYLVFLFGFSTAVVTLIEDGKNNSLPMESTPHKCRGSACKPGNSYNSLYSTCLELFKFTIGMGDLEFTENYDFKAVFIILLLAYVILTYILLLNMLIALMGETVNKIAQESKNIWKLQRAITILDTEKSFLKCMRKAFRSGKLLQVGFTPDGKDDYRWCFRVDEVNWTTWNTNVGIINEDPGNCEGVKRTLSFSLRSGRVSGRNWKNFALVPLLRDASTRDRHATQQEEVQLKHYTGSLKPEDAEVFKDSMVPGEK
Description for VR1 nociceptor: This test comprises the contacting of X. laevis ovocites that express the VR1 nociceptor or glutamatergic receptors with an agonist (ligand) for said VR1 nociceptor, for example, capsaicin or L-glutamate, in the presence or absence of the compound to be tested, maintaining the transmembrane voltage constant at −80 mV, and to detect the inhibiting activity of said compound to be tested by measuring the ionic current activated by the agonist in the presence and absence of the compound to be tested. The power and efficiency of the inhibiting activity of the compound to be tested can be determined by obtaining the dose-response curves. For this, the magnitude of the ionic current blockage activated by the X. laevis ovocite agonist that express the receptors in the presence of growing concentrations of the compound to be tested, is examined. The ionic current intensities ratio, in the presence and absence of the compound to be tested, allows to obtain the dose-response curves (19, 20). These graphs meet logarithmic functions to determine the maximum blockage (power) and the antagonist concentration that is produced by half the maximum blockage (IC50 efficiency).
Briefly, the X. laevis ovocites of adult frogs are gathered, manipulated, and injected with cDNA that codes the VR1 nociceptor (5, 19). The ionic currents activated by the capsaicin agonist are recorded with the maintenance of the constant voltage technique with two microelectrodes (two-microelectrode voltage clamp) (19, 20). The ovocites that express the VR1 nociceptor are transferred to the recording chamber and perfunded using an 8-output perfusion system. […] The inhibiting activity is detected by measuring the ionic current activated by the agonist in the presence and absence of the N-alkylglycine trimeres.
The power and efficiency of the inhibitory activity of N-alkylglycine trimeres is determined by obtaining the dose-response curves. […]

For `CN1CCCC1CCNCC(=O)N(CCc1ccc(Cl)cc1Cl)CC(=O)N(CCc1ccc(Cl)cc1Cl)CC(N)=O` (racemic) [compound [4], [N-[(R,S)-2-[2-(N-methyl)pyrrolidinyl]ethyl]glycyl]-[N-(2,4-dichlorophenethyl)glycyl]-N-(2,4-dichlorophenethyl)glycinamide], at VR1 nociceptor, the IC50 is roughly 1000 nM. Moreover, the “attenuation of the ocular irritation produced by capsaicin” value in experiment [1] is on record as “approximately 40%”. On to `CCN(CC)CCCNCC(=O)N(CCc1ccc(Cl)cc1Cl)CC(=O)N(CCC(C)C)CC(N)=O` [compound [7], [N-[3-(N,N-diethylamine)propyl]glycyl]-[N-(2,4-dichlorophenethyl)glycyl]-N-(3-methylbutyl)glycinamide], for which the IC50 at VR1 nociceptor was roughly 30000 nM.

For the compound `CCN(CC)CCCNCC(=O)N(CCc1ccc(Cl)cc1Cl)CC(=O)N(CCc1ccc(Cl)cc1Cl)CC(N)=O` [compound [8], [N-[3-(N,N-diethylamine)propyl]glycyl]-[N-(2,4-dichlorophenethyl)glycyl]-N-(2,4-dichlorophenethyl)glycinamide], the IC50 on VR1 nociceptor is roughly 2000 nM. In addition, the “attenuation of the ocular irritation produced by capsaicin” value in experiment [1] is reported as “approximately 20%”. For `CCN(CC)CCCN(CC(=O)N(CCc1ccc(Cl)cc1Cl)CC(N)=O)C(=O)CNCCC(c1ccccc1)c1ccccc1` [compound [9]], the IC50 in experiment [2] turned out to be 1000 nM.

With `CCN(CC)CCCN(CC(=O)N(CCc1ccccn1)CC(N)=O)C(=O)CNCCC(c1ccccc1)c1ccccc1` [compound [10]], in experiment [2], the IC50 was roughly 2000 nM.

Regarding `CCN(CC)CCCN(CC(=O)N(CCn1ccnc1)CC(N)=O)C(=O)CNCCC(c1ccccc1)c1ccccc1` [compound [11]], the IC50 in experiment [2] is roughly 10000 nM.
